Source: patent US20050192262A1, “Treatment of tumours” (priority 2001, published 2005)
Read-outs that look alike come from different tables or passages of the source.

Legend:
cyclin D1 = experiment: Western blotting of Dunning AT-1 rat prostate tumours; type: in vivo; settings: Animals II; exposure 80 hours in all arms
Procedure: (§1) The animal experiment described above was repeated.
(§2) Group 1 received a single dose of 10 mg 17α-AED sc. near tumour.
(§3) Group 2 received a single dose of 80 mg 17β-AED in the same way.
(§4) Group 3 received a single dose of 25 mg 17α OH-pregnenolone in the same way.
(§5) Group 4 received a single dose of 7.5 mg 5-androstene-3β,7β,17α-triol.
Protein content of homogenates were determined by Lowry assay.

PPARγ [1] = molecular target: T1, PPARγ (Mus musculus, UniProt P37238); experiment: Ligand-induced coactivator interaction assay (GST-PPARγ / SRC-1); type: biochemical; settings: for PPARγ-ligand activity, steroid + liver cytosol + PAPS / PPARγ-ligand activity, native steroid + liver cytosol: second experiment; for PPARγ-ligand activity, steroid + liver cytosol + PAPS: active liver cytosol, sulfate formed in situ; for PPARγ-ligand activity, native steroid + liver cytosol: without PAPS
T1 construct: made in house; host or cells: E. coli strain Y 1090 (GST-PPARγ); TNT Coupled Reticulocyte Lysate System, Promega (SRC-1)
Procedure: ApcDNA3-SRC-1 construct was used as template to prepare (^35S-methionine)-SRC-1 by in vitro transcription and translation using the TNT® Coupled Reticulocyte Lysate System (Promega).
Ligand-induced interactions between GST-PPARγ and SRC-1: To generate GST-PPARγ fusion protein, mouse PPARγcDNA was inserted into the NcoI-HindIII sites of pGEX-KG, and protein was then expressed in E. coli, strain Y 1090. The bacteria were lysed by sonication in TEDG buffer (50 mM Tris (pH 7.4), 1.5 mM EDTA, 10% glycerol, 0.4 M NaCl, 0.1 mM DTT) containing the following protease inhibitors: 0.5 mM PMSF, 1 mM benzamidine, 10 μg/ml leupeptin, 10 μg/ml antipain and […] aprotinin. The lysates were centrifuged at 100,000×g for 60 min in a SW 41 rotor using a Beckman L8-70 M ultracentrifuge. The fusion protein was immobilized on GSH Sepharose beads (Pharmacia) and then incubated with potential ligands in (FIG. 5) 10 mM Tris (pH7.4), 0.12 M KCl, 8% glycerol, 4 mM DTT, and 0.5% CHAPS (buffer AA) for 30 min at room temperature. Thereafter, (^35S methionine) SRC-1 (ca 0.1 μCi) was added, and the beads were incubated for another hour at 4° C. and then washed extensively with buffer A. SDS sample buffer was added to the beads, and the samples boiled prior to separation on 7.5% SDS-PAGE. Radioactivity was detected by autoradiography.
α- and β-AED were investigated in above assay for PPARγ ligand activity in 10 and 100 μM solutions in ethanol 10%, in distilled water. 10 μL aliquots of α-AED-solution or β-AED-solution were also added to a preparation of a male rat liver cytosolic preparation prepared as follows:
A homogenate of a rat liver, a known source of steroid sulphotransferase activity, was prepared using a food processor. The liver homogenate was protected from serine-proteases by the addition of 2 mmol of PMSF, 1 mmol of EDTA and 10 mmol Tris-HCl buffered to a pH of 7.40. The homogenate was prepared at 4° C. and then centrifuged at 15000 g for 10 minutes, followed by centrifugation at 100000 g for an hour at 4° C. The supernatant was divided into test tubes containing one of the following steroids: 17β-AED or 17α-AED in 5 μM concentration together with 100 μL of liver cytosol. One test tube served as positive control and contained SCR-1.
In a second experiment the following steroids were tested for activity: 17α-AED, 17OH-pregnenolone and 5-androstene-3β,7β,17α-triol with and without 10 μL of […] (PAPS), Sigma Chemicals, corresponding to 0.1 mg of PAPS. One test tube served as a positive control and contained SRC-1 Instead of steroid. One test tube contained liver cytosol where the steroid sulphotransferase was inactivated by heating to 45° C. for 30 minutes. Tubes were stirred at 20° C. for 1 hour and the contents were investigated in the receptor-coactivator assay for ligand activity (FIG. 5).
17α-AED was treated in the method described by Arnostova, Libuse M.; Pouzar, Vladimir; Drasar, Pavel. Inst. Org. Chem. Biochem., Czech. Acad. Sci., Prague, Czech. Synth. Commun. (1990), 20(10), 1521-9, where acetate is used as protection group and pyridine —SO3 complex as the sulfating agent. Deprotection with an excess of 0.8M NaOH in MeOH-water provides the desired hydroxy sulfate, which is investigated, for PPARγ-activity in the ligand-activated-coactivator receptor assay described above.

VEGF = experiment: Immunostaining of tumour sections against VEGF; type: in vivo, rat; settings: Animals II
Procedure: Working dilution 1:100. As negative control antibody a mouse IgG, clone DAK-GO1, kappa, ×931, Dako, was used with a working dilution of 1:50.
as §1, §2, §3, §4, §5

β-catenin = experiment: Western blotting of Dunning AT-1 rat prostate tumours; type: in vivo; settings: Animals II; exposure 80 hours in all arms
Procedure: as §1
Thawed rat tumours from both experiments above were homogenized in ice cold lysis-buffer. (160 mM NaCl, 10 mM HEPES, 2 mM CaCl2, 5% SDS, 0.5% Triton X-100, 100 μg/ml phenyl-metylsulfonyl fluoride, 1 μg/ml leupeptin and 2 μg/ml aprotinin), placed on ice for 15 minutes and following clarification centrifuged for 10 minutes at 13,000 g. Protein content of homogenates were determined by Lowry assay.
Protein in lysates (90 μg) were separated by electrophoresis using 8% SDS-PAGE and separated proteins were transferred onto a nitrocellulose membrane (Amersham) in trans-blot electrophoretic transfer cell (Bio-Rad Laboratories).
After washing in TTBS the blots were reincubated with horseradish peroxidase conjugated secondary antibody (anti-goat antibodies 2020, Santa Cruz) diluted 1:4000 in TTBS containing 3% (w/v) non-fat, dried milk for one hour. Blots were developed using an enhanced chemiluminescence system (ECL, Amersham) and exposed to Hyperfilm ECL (Amersham). Optical density was measured densitometrically.
The blots were striped and rehybridized with antibodies against β-catenin (C-18, sc. 1496) and COX-2 (C-20, sc 1745) antibodies.
In the second animal experiment tumours were investigated for expression of β-catenin, COX-2 and cyclin D1 (A-12, sc. 8396).

PPARγ [2] = experiment: Western blotting cell lines; type: cell-based, human
From the text: (§6) Protein blotting was repeated for DU-145 and PC-3 cell lines, which were also investigated for expression of PPARδ through antibody (H-74, sc 7197).

PPARδ = experiment: Western blotting cell lines; type: cell-based, human; settings: PC-3 and DU-145
From the text: as §6

SKBR-3 = experiment: Facscan viability (chlorofluoresceindiacetate / propidiumiodide); type: cell-based, human; settings: 200 nM 17α-AED + rat liver cytosol + PAPS, Herceptin 1:150, 72 hours
Procedure: (§7) Effects of HER-2 and 17α-AED-3β-sulfate in breast and prostate cancer cell lines. Cell cultures of prostate cancer cell lines PC-3 and DU-145 as well as mammary cancer cell lines MCF-7 and SKBR-3 were grown in flasks as previously described in the presence or absence of a 200 nM 17α-AED. Cultures containing 17α-AED were further subdivided and these cultures were grown in the presence or absence of Herceptin®, her-2 antibodies, using a stem solution of 1 mg/ml which was further diluted, making the final concentration 1:150 In the cell suspension.
(§8) Representations of each cell line containing no steroid were also treated with herceptin as above. For each cell line and variation of treatment 3 different culture flasks were used.
(§9) Further, a mixture of 100 μL rat liver cytosol and 20 μL of 3′-phosphoadenosine-5′-phosphosulphate (PAPS), corresponding to approximately 0.16 mg of PAPS was shared between and added to cultures containing 17α-AED.
(§10) Finally, for each cell line three samples were kept as untreated controls.
(§11) To estimate the number of viable cells a solution of chlorofluoresceindiacetate was added to the cultures on the last day of culture. This chemical penetrates freely into cells, but is metabolized in the living cell into a form with green fluorescence unable to leave the cell. As counterstaining, to detect dead cells, propidiumiodide, giving a red fluorescence, was added 15 minutes before analyzing the samples in a Facscan. Time for 10000 cells to pass the detector in the Facscan was estimated in order to detect a possible growth inhibitory effect, not resulting in an increased number of dead cells.

MCF-7 = experiment: as above; type: cell-based, human; settings: 200 nM 17α-AED + rat liver cytosol + PAPS, Herceptin 1:150, 72 hours
Procedure: as §7, §8, §9, §10, §11

PC-3 = experiment: as above; type: cell-based, human; settings: 200 nM 17α-AED + rat liver cytosol + PAPS, Herceptin 1:150, 72 hours
Procedure: as §7, §8, §9, §10, §11

DU-145 = experiment: as above; type: cell-based, human; settings: 200 nM 17α-AED + rat liver cytosol + PAPS, Herceptin 1:150, 72 hours
Procedure: as §7, §8, §9, §10, §11

[3] = test system: Dunning R 3327, AT-1, rat prostatic tumour; experiment: Tumour growth after s.c. injection near tumour; type: in vivo; settings: Animals II; single s.c. injection in the proximity of the tumour
Procedure: as §1, §2, §3, §4, §5
A fifth group served as tumour bearing controls.

T1 sequence (P37238 whole entry): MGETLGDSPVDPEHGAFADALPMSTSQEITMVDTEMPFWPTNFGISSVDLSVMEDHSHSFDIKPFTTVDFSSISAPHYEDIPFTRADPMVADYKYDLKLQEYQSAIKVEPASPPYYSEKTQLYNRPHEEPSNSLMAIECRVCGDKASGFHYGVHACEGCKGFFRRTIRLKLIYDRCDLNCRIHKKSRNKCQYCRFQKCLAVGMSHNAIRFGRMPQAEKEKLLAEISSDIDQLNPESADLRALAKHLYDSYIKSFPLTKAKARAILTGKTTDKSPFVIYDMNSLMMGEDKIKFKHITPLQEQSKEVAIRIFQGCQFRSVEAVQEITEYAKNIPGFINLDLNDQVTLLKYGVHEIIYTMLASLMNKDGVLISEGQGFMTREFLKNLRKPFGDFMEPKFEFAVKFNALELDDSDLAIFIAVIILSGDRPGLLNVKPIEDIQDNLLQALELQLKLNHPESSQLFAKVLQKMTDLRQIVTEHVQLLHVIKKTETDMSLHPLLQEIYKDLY
T1 sequence (Q15788 whole entry partner): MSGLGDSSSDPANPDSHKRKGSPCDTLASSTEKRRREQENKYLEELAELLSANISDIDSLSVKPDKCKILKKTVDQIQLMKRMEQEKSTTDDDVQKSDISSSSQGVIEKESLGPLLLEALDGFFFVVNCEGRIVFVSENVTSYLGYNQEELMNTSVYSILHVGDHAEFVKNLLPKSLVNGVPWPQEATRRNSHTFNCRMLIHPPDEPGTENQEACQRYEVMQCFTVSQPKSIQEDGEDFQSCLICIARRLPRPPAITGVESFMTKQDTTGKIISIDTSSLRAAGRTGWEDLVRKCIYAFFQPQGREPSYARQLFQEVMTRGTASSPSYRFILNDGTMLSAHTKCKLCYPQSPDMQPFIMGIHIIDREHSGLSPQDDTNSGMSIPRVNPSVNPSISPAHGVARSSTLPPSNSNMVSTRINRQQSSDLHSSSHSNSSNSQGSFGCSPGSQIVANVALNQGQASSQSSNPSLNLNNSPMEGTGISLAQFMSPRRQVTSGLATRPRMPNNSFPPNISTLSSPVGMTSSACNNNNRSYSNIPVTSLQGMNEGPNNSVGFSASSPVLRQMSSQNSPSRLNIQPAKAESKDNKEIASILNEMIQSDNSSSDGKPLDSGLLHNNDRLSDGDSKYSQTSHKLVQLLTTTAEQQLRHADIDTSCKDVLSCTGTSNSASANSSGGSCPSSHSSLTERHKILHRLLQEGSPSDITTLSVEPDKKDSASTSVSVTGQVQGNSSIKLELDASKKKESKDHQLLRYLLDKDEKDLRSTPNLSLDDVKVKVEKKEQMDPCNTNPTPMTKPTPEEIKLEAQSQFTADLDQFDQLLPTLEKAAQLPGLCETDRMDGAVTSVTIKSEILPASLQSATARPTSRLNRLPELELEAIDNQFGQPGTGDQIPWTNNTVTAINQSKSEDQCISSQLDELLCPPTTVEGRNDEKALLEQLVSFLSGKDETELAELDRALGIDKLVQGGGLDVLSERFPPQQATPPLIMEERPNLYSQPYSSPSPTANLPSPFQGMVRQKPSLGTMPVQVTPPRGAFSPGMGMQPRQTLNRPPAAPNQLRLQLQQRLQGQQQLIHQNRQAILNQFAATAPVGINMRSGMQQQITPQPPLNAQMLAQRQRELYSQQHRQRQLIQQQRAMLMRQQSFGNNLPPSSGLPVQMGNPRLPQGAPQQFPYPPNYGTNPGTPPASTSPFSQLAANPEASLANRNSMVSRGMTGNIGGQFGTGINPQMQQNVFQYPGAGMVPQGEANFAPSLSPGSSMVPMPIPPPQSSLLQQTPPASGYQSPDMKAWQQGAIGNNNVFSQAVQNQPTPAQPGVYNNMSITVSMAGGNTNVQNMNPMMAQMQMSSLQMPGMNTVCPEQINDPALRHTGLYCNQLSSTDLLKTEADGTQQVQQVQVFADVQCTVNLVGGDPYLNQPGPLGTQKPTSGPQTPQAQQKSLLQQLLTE

SMILES: C[C@]12CC[C@H]3[C@@H]([C@@H](O)C=C4C[C@@H](O)CC[C@@]43C)[C@@H]1CC[C@H]2O [5-androstene-3β,7β,17α-triol, 3β,7β,17α-trihydroxy-androst-5-en]
- expression of cyclin D1 (cyclin D1): down-regulation
- PPARγ-ligand activity, steroid + liver cytosol + PAPS (PPARγ [1]): insignificant responses
- PPARγ-ligand activity, native steroid + liver cytosol (PPARγ [1]): insignificant responses
- staining for VEGF (VEGF): almost complete disappearance of detectable VEGF In tumours in 2 cases, a modest downregulation in 1 and unchanged appearance in 1
- expression of β-catenin (β-catenin): down-regulation

SMILES: C[C@]12CC[C@H]3[C@@H](CC=C4C[C@@H](OS(=O)(=O)O)CC[C@@]43C)[C@@H]1CC[C@H]2O [17α-AED-3βsulfate, 5-androstene-17α-ol-3β-sulfate]
- expression of PPARγ (PPARγ [2]; DU-145, 100 nM, repeated experiment): Expression of PPARγ was observed
- PPARγ expression (PPARγ [2]; PC-3 cells, 100 nM, repeated experiment): increased
- expression of PPARγ (PPARγ [2]; both cell lines (PC-3, DU-145)): increased the expression of PPARγ significantly
- expression of PPARδ (PPARδ): no effect
- dead (SKBR-3): 21%
- viable (SKBR-3): 66%
- dead (MCF-7): 15%
- viable (MCF-7): 75%
- dead (PC-3): 12%
- viable (PC-3): 81%
- dead (DU-145): 18%
- viable (DU-145): 70%
- PPARγ-ligand activity of the 3β-sulfate (PPARγ [1]): shows PPARγ-activity
- PPARγ-ligand activity of the 3β-sulfate (PPARγ [1]; listed as 5-androstene-17α-ol-3β-sulfate): only sample demonstrating PPARγ-ligand activity

SMILES: CC(=O)[C@@]1(O)CC[C@H]2[C@@H]3CC=C4C[C@@H](O)CC[C@]4(C)[C@H]3CC[C@@]21C [17αOH-pregnenolone, 17-hydroxy-pregnenolone (17α-OH)]
- expression of cyclin D1 (cyclin D1): same pattern, but even more marked
- PPARγ-ligand activity, steroid + liver cytosol + PAPS (PPARγ [1]): insignificant responses
- PPARγ-ligand activity, native steroid + liver cytosol (PPARγ [1]): insignificant responses
- staining for VEGF (VEGF): almost complete disappearance of staining for VEGF
- expression of β-catenin (β-catenin): same pattern, but even more marked
- tumour volumes [3]: ~−50%
